Measured values as given in patent US12612410B2 (CHILDREN'S HOSPITAL MEDICAL CENTER, priority 2020, dated 2026).

These compounds were tested against T1, FLT3 (Homo sapiens, UniProt P36888) (assay: Reaction Biology NanoBRET target engagement assay, FLT3). Details: transfected HEK-293 cells.
T1 sequence (P36888 27-993): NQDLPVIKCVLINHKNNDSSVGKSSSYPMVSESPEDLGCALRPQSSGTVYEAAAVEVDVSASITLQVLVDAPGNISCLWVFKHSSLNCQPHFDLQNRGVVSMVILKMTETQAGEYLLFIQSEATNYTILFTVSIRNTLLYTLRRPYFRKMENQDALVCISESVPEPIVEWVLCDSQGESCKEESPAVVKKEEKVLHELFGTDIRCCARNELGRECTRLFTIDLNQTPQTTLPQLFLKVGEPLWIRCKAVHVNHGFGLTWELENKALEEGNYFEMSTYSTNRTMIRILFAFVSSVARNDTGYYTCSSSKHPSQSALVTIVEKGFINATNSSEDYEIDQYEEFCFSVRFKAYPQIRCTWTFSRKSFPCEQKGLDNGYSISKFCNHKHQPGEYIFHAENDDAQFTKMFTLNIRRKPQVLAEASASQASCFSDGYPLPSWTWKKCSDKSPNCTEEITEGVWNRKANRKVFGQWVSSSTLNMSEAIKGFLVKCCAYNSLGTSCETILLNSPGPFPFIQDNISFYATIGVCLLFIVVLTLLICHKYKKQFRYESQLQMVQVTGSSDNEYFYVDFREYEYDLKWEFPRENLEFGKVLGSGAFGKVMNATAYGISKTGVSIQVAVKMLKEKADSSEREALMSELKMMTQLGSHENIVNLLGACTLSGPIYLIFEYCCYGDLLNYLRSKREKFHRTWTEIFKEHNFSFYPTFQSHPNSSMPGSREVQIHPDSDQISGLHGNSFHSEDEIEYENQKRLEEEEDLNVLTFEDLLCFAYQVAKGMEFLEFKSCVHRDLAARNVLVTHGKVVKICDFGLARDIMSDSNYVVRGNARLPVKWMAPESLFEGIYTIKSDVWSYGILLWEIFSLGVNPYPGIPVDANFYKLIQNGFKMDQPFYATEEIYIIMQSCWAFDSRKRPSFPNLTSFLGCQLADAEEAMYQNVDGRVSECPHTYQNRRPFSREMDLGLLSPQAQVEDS
Type: cell-based
Description: The NanoBRET assay measures kinase engagement in real time in the context of the intact cell. Unlike the previously described biochemical kinase assay methodologies in Examples 26-27, the NanoBRET assay measures the binding and activity characteristics under equilibrium conditions using full-length kinases in the presence of cellular concentrations of ATP in live, uncompromised cells. As such, the assay provides a more relevant assessment of kinase potency and selectivity that would be expected to be observed in the native cellular environment, where potency is often considerably lower than that observed in the isolated biochemical assays (Vasta, J. D. et al., (2018) Cell Chem. Biol. 25, 206-214). The assay uses a Kinase-NanoLuc® fusion vector expressing a kinase protein to which a luciferase tag has been added, a cell-permeant fluorescent NanoBRET™ tracer, a NanoLuc® substrate, and an extracellular NanoLuc® inhibitor. Upon expression of the luciferase-tagged kinase, cells will produce a strong BRET signal only in the presence of the NanoBRET™ tracer. The extracellular NanoLuc® inhibitor ensures that the BRET signal observed emanates only from live cells. Because the BRET signal has tight distance constraints, addition of the test compound will decrease the BRET signal if the compound competes with the NanoBRET™ tracer for binding to the kinase domain. Under the appropriate tracer conditions established by the manufacturer, quantitative intracellular affinity and relative potency can then be determined using Mass Action model equations.
HEK-293 cells were purchased from ATCC. FuGENEHD Transfection Reagent, Kinase-NanoLucfusion plasmids, Transfection Carrier DNA, NanoBRETTracers and dilution buffer, NanoBRETNano-Glo Substrate, Extracellular NanoLucInhibitor were obtained from Promega.
Assays were conducted following Promega assay protocol with some modifications. HEK-293 Cells were transiently transfected with Kinase-NanoLucFusion Vector DNA by FuGENEHD Transfection Reagent. Testing compounds were delivered into 384 well assay plate by Echo 550 (Labcytelnc, Sunnyvale, CA). Transfected cells were harvested and mixed with NanoBRETTracer Reagent and dispensed into 384 well plates and incubated at 37° C. in 5% CO2 cell culture incubator for 1 hour. The NanoBRETNano-Glo Substrate plus Extracellular NanoLucInhibitor Solution were added into the wells of the assay plate and incubated for 2-3 minutes at room temperature. The donor emission wavelength (460 nm) and acceptor emission wavelength (600 nm) were measured in the EnVisionplate reader. The BRET Ratios were calculated. BRET Ratio=[(Acceptor sample÷Donor sample)−(Acceptor no-tracer control÷Donor no-tracer control)]. The IC50 values of compounds were calculated with Prism GraphPad program.
NanoBRET™ Target Engagement Assay Protocol
1. Transient Transfection of HEK-293 Cells NanoLuc® Fusion Vector DNA
• 1). Cultivate HEK-293 cells (70-80% confluence) appropriately prior to assay. Trypsinize and collect HEK-293 cells. • 2). Prepare lipid: DNA complexes as follows: • a. Prepare a […] solution of DNA in Opti-MEM without serum that consists of the following ratios of carrier DNA and DNA encoding NanoLuc® fusion. 9.0 µg/mL of Transfection Carrier DNA, […] of NanoLuc fusion vector DNA and 1 mL of Opti-MEM without phenol red. Mix thoroughly. • b. Add 30 l of FuGENE HD Transfection Reagent into each milliliter of DNA mixture to form lipid: DNA complex. • c. Mix by inversion 10 times. • d. Incubate at ambient temperature for 20 minutes to allow complexes to form. • 3). In a sterile, conical tube, mix 1 part of lipid: DNA complex with 20 parts of HEK-293 cells in suspension. Mix gently by inversion 5 times. • 4). Dispense cells+lipid: DNA complex into a sterile tissue culture dish and incubate for 22-24 hours. 2. Addition of Test Compounds (dry plate shooting)
Each test compound is delivered from the compound source plate to the wells of 384-well white NBS plate by Echo 550.
3. […]

SMILES | IC50 [nM]
CC(O)(c1cn2c(-c3cccc(N[C@@H]4CCCNC4)n3)cnc2cn1)C(F)(F)F (single isomer, unassigned) [Compound 81] | 15
CC1(c2cn3c(-c4cccc(N[C@@H]5CCNC5)n4)cnc3cn2)CC1 [Compound 3, (R)-6-(6-(1-methylcyclopropyl)imidazo[1,2-a]pyrazin-3-yl)-N-(pyrrolidin-3-yl)pyridin-2-amine] | 3
CC1(c2cn3c(-c4cccc(N[C@H]5CNCC56CC6)n4)cnc3cn2)CC1 [Compound 5, (R)-N-(6-(6-(1-methylcyclopropyl)imidazo[1,2-a]pyrazin-3-yl)pyridin-2-yl)-5-azaspiro[2.4]heptan-7-amine] | < 0.5
CC(C)(O)c1cn2c(-c3nc(N[C@H]4CNC[C@@H]4F)c(F)cc3F)cnc2cn1 [Compound 33, 2-(3-(3,5-difluoro-6-(((3S,4S)-4-fluoropyrrolidin-3-yl)amino)pyridin-2-yl)imidazo[1,2-a]pyrazin-6-yl)propan-2-ol] | 1500
CC(C)(O)c1cn2c(-c3nc(N[C@@H]4CCCNC4)c(F)cc3F)cnc2cn1 [Compound 34, (R)-2-(3-(3,5-difluoro-6-(piperidin-3-ylamino)pyridin-2-yl)imidazo[1,2-a]pyrazin-6-yl)propan-2-ol] | 177
CC(C)(O)c1cn2c(-c3nc(N[C@H]4CNCC[C@@H]4F)c(F)cc3F)cnc2cn1 [Compound 35, 2-(3-(3,5-difluoro-6-(((3S,4S)-4-fluoropiperidin-3-yl)amino)pyridin-2-yl)imidazo[1,2-a]pyrazin-6-yl)propan-2-ol] | 216
FC(F)(F)COc1cn2c(-c3cccc(N[C@@H]4CCNC4)n3)cnc2cn1 [Compound 38, (R)-N-(pyrrolidin-3-yl)-6-(6-(2,2,2-trifluoroethoxy)imidazo[1,2-a]pyrazin-3-yl)pyridin-2-amine] | 12
Cn1cc(-c2cn3c(-c4cccc(N[C@@H]5CCCNC5)n4)cnc3cn2)cn1 [Compound 43, (R)-6-(6-(1-methyl-1H-pyrazol-4-yl)imidazo[1,2-a]pyrazin-3-yl)-N-(piperidin-3-yl)pyridin-2-amine] | 73
O=S1(=O)CCCN1c1cn2c(-c3cccc(N[C@H]4CNCC[C@@H]4F)n3)cnc2cn1 [Compound 97, 2-(3-(6-(((3S,4S)-4-fluoropiperidin-3-yl)amino)pyridin-2-yl)imidazo[1,2-a]pyrazin-6-yl)isothiazolidine 1,1-dioxide] | 0.9
O=C1CCCN1c1cn2c(-c3nc(N[C@H]4CNCC[C@@H]4F)c(F)cc3F)cnc2cn1 [Compound 107, 1-[3-[3,5-difluoro-6-[[(3S,4S)-4-fluoro-3-piperidyl]amino]-2-pyridyl]imidazo[1,2-a]pyrazin-6-yl]pyrrolidin-2-one] | 0.9
O=C1CCCN1c1cn2c(-c3nc(N[C@@H]4CCCNC4)c(F)cc3F)cnc2cn1 [Compound 108, (R)-1-(3-(3,5-difluoro-6-(piperidin-3-ylamino)pyridin-2-yl)imidazo[1,2-a]pyrazin-6-yl)pyrrolidin-2-one] | 31
O=C1CCCN1c1cn2c(-c3cccc(N[C@H]4CNCC[C@@H]4F)n3)cnc2cn1 [Compound 119, 1-(3-(6-(((3S,4S)-4-fluoropiperidin-3-yl)amino)pyridin-2-yl)imidazo[1,2-a]pyrazin-6-yl)pyrrolidin-2-one] | 16

Next, values leading:

IC50 [nM] | SMILES
277 | CC(O)(c1cn2c(-c3cccc(N[C@H]4CNC[C@@H]4F)n3)cnc2cn1)C(F)(F)F (single isomer, unassigned) [Compound 77]
40 | CC(O)(c1cn2c(-c3cccc(N[C@H]4CNC[C@@H]4F)n3)cnc2cn1)C(F)(F)F (single isomer, unassigned) [Compound 78]
94 | CC(O)(c1cn2c(-c3cccc(N[C@H]4CNCC[C@@H]4F)n3)cnc2cn1)C(F)(F)F (single isomer, unassigned) [Compound 80]
40 | CC(O)(c1cn2c(-c3cccc(N[C@H]4CNCC[C@@H]4F)n3)cnc2cn1)C(F)(F)F (single isomer, unassigned) [Compound 82]
6 | CC1(c2cn3c(-c4cccc(N[C@H]5CNC[C@@H]5F)n4)cnc3cn2)CC1 [Compound 1, N-((3S,4S)-4-fluoropyrrolidin-3-yl)-6-(6-(1-methylcyclopropyl)imidazo[1,2-a]pyrazin-3-yl)pyridin-2-amine]
21 | FC(F)c1cn2c(-c3cccc(N[C@H]4CNC[C@@H]4F)n3)cnc2cn1 [Compound 16, 6-(6-(difluoromethyl)imidazo[1,2-a]pyrazin-3-yl)-N-((3S,4S)-4-fluoropyrrolidin-3-yl)pyridin-2-amine]
6 | FC(F)c1cn2c(-c3cccc(N[C@H]4CNCC[C@@H]4F)n3)cnc2cn1 [Compound 25, 6-(6-(difluoromethyl)imidazo[1,2-a]pyrazin-3-yl)-N-((3S,4S)-4-fluoropiperidin-3-yl)pyridin-2-amine]
136 | CC(C)(O)c1cn2c(-c3cccc(N[C@H]4CNCC[C@@H]4F)n3)cnc2cn1 [Compound 31, 2-(3-(6-(((3S,4S)-4-fluoropiperidin-3-yl)amino)pyridin-2-yl)imidazo[1,2-a]pyrazin-6-yl)propan-2-ol]
10 | F[C@H]1CNC[C@@H]1Nc1cccc(-c2cnc3cnc(C4CC4)cn23)n1 [Compound 50, 6-(6-cyclopropylimidazo[1,2-a]pyrazin-3-yl)-N-((3S,4S)-4-fluoropyrrolidin-3-yl)pyridin-2-amine]
4 | F[C@H]1CCNC[C@@H]1Nc1cccc(-c2cnc3cnc(C4CC4)cn23)n1 [Compound 51, 6-(6-cyclopropylimidazo[1,2-a]pyrazin-3-yl)-N-((3S,4S)-4-fluoropiperidin-3-yl)pyridin-2-amine]
52 | FC(F)COc1cn2c(-c3cccc(N[C@H]4CNC[C@@H]4F)n3)cnc2cn1 [Compound 58, 6-(6-(2,2-difluoroethoxy)imidazo[1,2-a]pyrazin-3-yl)-N-((3S,4S)-4-fluoropyrrolidin-3-yl)pyridin-2-amine]
21 | O=C1CCCN1c1cn2c(-c3cccc(N[C@H]4CNC[C@@H]4F)n3)cnc2cn1 [Compound 121, 1-(3-(6-(((3S,4S)-4-fluoropyrrolidin-3-yl)amino)pyridin-2-yl)imidazo[1,2-a]pyrazin-6-yl)pyrrolidin-2-one]
